Columns and labels:
Experiment in all cases: relative viability (nuclei count vs DMSO), 5 days (fraction); higher = more cells survive
GSK-J4 + Luminespib = compound: CCOC(=O)CCNc1cc(N2CCc3ccccc3CC2)nc(-c2ccccn2)n1 [GSK-J4] + CCNC(=O)c1noc(-c2cc(C(C)C)c(O)cc2O)c1-c1ccc(CN2CCOCC2)cc1 [Luminespib] (partner 0.01 µM)
In short: (§1)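 Relative viability divides the nuclei count in treated wells by that in vehicle wells. Lung cancer cell lines were seeded in 1536-well plates, dosed by pin tool the next day, and fixed and stained after 5 days in one step with final 0.05% Triton X-100, 1% formaldehyde and 1 ug/ml Hoechst. Dosing was a single drug or a fixed anchor-drug dose plus five library-drug doses (not always all listed) in √10 steps, and values are medians of duplicate plates imaged at 4×.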

AZ3146 + OSI-027 = compound: CN1CCC(CC1)OC2=CC(=C(C=C2)NC3=NC=C4C(=N3)N(C(=O)N4C)C5CCCC5)OC [AZ3146] + COc1cccc2cc(-c3nc([C@H]4CC[C@H](C(=O)O)CC4)n4ncnc(N)c34)[nH]c12 [OSI-027] (partner 0.5 µM)
In short: as §1

GSK-J4 + Crizotinib = compound: CCOC(=O)CCNc1cc(N2CCc3ccccc3CC2)nc(-c2ccccn2)n1 [GSK-J4] + C[C@@H](Oc1cc(-c2cnn(C3CCNCC3)c2)cnc1N)c1c(Cl)ccc(F)c1Cl [Crizotinib] (partner 1 µM)
In short: as §1

GSK-J4 + Pemetrexed = compound: CCOC(=O)CCNc1cc(N2CCc3ccccc3CC2)nc(-c2ccccn2)n1 [GSK-J4] + Nc1nc2[nH]cc(CCc3ccc(C(=O)N[C@@H](CCC(=O)O)C(=O)O)cc3)c2c(=O)[nH]1 [Pemetrexed] (partner 0.2 µM)
In short: as §1

Cell Line	relative viability (GSK-J4 + Luminespib; first compound 0.5 µM)	relative viability (GSK-J4 + Luminespib; first compound 1.581 µM)	relative viability (GSK-J4 + Luminespib; first compound 5 µM)	relative viability (GSK-J4 + Luminespib; first compound 15.81 µM)	relative viability (GSK-J4 + Luminespib; first compound 50 µM)	relative viability (AZ3146 + OSI-027; first compound 0.08 µM)	relative viability (AZ3146 + OSI-027; first compound 0.253 µM)	relative viability (AZ3146 + OSI-027; first compound 0.8 µM)	relative viability (AZ3146 + OSI-027; first compound 2.53 µM)	relative viability (AZ3146 + OSI-027; first compound 8 µM)	relative viability (GSK-J4 + Crizotinib; first compound 0.5 µM)	relative viability (GSK-J4 + Crizotinib; first compound 1.581 µM)	relative viability (GSK-J4 + Crizotinib; first compound 5 µM)	relative viability (GSK-J4 + Crizotinib; first compound 15.81 µM)	relative viability (GSK-J4 + Crizotinib; first compound 50 µM)	relative viability (GSK-J4 + Pemetrexed; first compound 0.5 µM)	relative viability (GSK-J4 + Pemetrexed; first compound 1.581 µM)	relative viability (GSK-J4 + Pemetrexed; first compound 5 µM)	relative viability (GSK-J4 + Pemetrexed; first compound 15.81 µM)	relative viability (GSK-J4 + Pemetrexed; first compound 50 µM)
201T	1.05	1.1	1.12	1.02	0.992	0.679	0.567	0.726	0.765	0.685	1.01	1.07	1.01	1.02	0.996	0.353	0.301	0.312	0.33	0.364
A549											0.691	0.669		0.536	0.605					
A-427	0.866		0.64	0.681	0.311	0.431	0.586	0.429	0.574	0.338	0.844		0.852	0.591	0.362	0.932	0.654		0.883	0.463
ABC-1	0.373	0.496	0.594	0.52	0.396	0.466	0.484	0.454	0.614	0.472	1.03	0.953	1.17	0.81	0.343					
BEN	0.297	0.373		0.289	0.189		0.306	0.206	0.285	0.309	0.865	0.795		0.759	0.688	0.933	0.759	0.501	0.731	0.573
CAL-12T	0.83	0.549	0.244	0.205	0.518	0.798	0.652	0.612	0.805	0.655	0.522	0.512	0.341	0.479	0.589	1.2	1.15	1.4	1.27	0.946
COR-L23	0.581	0.647		0.68	0.514	0.685	0.766	0.781	0.835	0.769	0.671	0.567		0.639	0.518	0.185	0.192		0.212	0.207
COR-L 105	0.624	0.58	0.702	0.633	1.01	0.63	0.653	0.587	0.641	0.404	0.843	0.7	0.547	0.749	0.695	0.826		1.12	1.09	0.937
Calu-6											0.726	0.618	0.828	0.76	0.685					
ChaGo-K-1	0.56	0.627	0.594	0.607	0.45	0.572	0.611	0.539	0.581	0.366	1.03		0.879	1.12	0.926	0.259		0.247	0.259	0.266
EBC-1											0.191	0.206	0.192	0.212	0.19					
HCC-78						0.3	0.381	0.322	0.357	0.365	0.346	0.297	0.378		0.354	0.916	0.841	0.929	0.957	0.929
HCC-366						0.781	0.85	0.863	0.865	0.884	0.523	0.405		0.395	0.445	0.148	0.145		0.229	0.169
IA-LM											0.793	0.745	0.867	0.691	0.0902					
NCI-H522	1.22	0.944	1.2	0.612	0.587	0.882	0.664	0.527	0.68	0.759						0.983	0.823		0.608	1.1
NCI-H727	0.299	0.402	0.244	0.336	0.369	0.674	0.56	0.595	0.671	0.413	0.782		1.01	0.771	0.443					
NCI-H1299											0.984	0.91	0.873	0.937	0.923					
NCI-H1395	0.529	0.621	0.62	0.723	0.536	0.569	0.533	0.564	0.701	0.633						0.894	0.73	0.707	0.764	0.707
NCI-H1648							0.268	0.233	0.253	0.302						0.618		1.02		0.873
NCI-H1703											0.736	0.748	0.431	0.616	0.662					
NCI-H1793	0.261	0.192	0.18	0.258	0.134	0.321	0.256	0.226	0.329	0.247						1.01	0.6	0.684	0.235	0.167
NCI-H2342	0.736	0.783	0.865	0.951	0.858	0.592	0.536	0.59	0.508	0.61						0.737	0.79	0.762	0.84	0.824
SW 900	0.195	0.156	0.155	0.177	0.154	0.459	0.491	0.613	0.549	0.387						0.478	0.478	0.475	0.442	0.526
